Experimental data as given in patent US6114302A, “Fragrance pro-accords” (The Procter & Gamble Company, priority 1999, dated 2000).

Assay: Fragrance Release Half-life (hydrolysis kinetics of pro-accord monitored by HPLC)
Format: physicochemical
Conditions: 90/10 dioxane/phosphate buffered water, buffer pH approximately 2.5, HPLC at 30° C.
Experimental: For the purposes of the present invention the pro-accords generally have a "Fragrance Release Half-life" of less than or equal to 12 hours when measured in NaH2 PO4 buffer at pH 2.5 and greater than or equal to 0.1 hour when measured in NaH2 PO4 buffer at pH 5.3. The "Fragrance Release Half-life" is defined herein as follows.
The rate at which the accord is released is defined by the formula: […]
and can be further expressed by the formula: [formula] wherein k is the release rate constant and [Pro-accord] is the concentration of pro-accord. For the purposes of the present invention the "Fragrance Release Half-life", t1/2, is related to the release rate constant by the formula: [formula] and this relationship is used for the purposes of the present invention to determine the "fragrance Release Half-life" (FRHL).
Due to the hydrophobic nature of some pro-accords, it is necessary to conduct the determination of t1/2 and k in a mixture of 90/10 dioxane/phosphate buffered water. […] Next 10 mL of the phosphate buffer is admixed with 90 mL of dioxane and the pro-fragrance to be analyzed is added. The hydrolysis kinetics are then monitored by conventional HPLC at 30° C. […]
*t1/2 for the purposes of the present invention is measured in […]

Row | t1/2 (Fragrance Release Half-life) | SMILES
1 | 4.8 h | c1ccc(CCOC(OCCc2ccccc2)(OCCc2ccccc2)OCCc2ccccc2)cc1 [tetrakis(phenylethyl) orthocarbonate, Tetrakis(phenylethyl) Orthocarbonate]
2 | 5.9 h | c1ccc(CCOC(OCCc2ccccc2)OCCc2ccccc2)cc1 [tris(phenylethyl) orthoformate, Tris(phenylethyl) Orthoformate]
